{"source": "patent US8507219B2", "about": "“Method of treating inflammation with statins” (MUSC Foundation for Research Development, priority 1997, dated 2013)", "key": {"[1]": {"experiment": "Plasma very-long-chain fatty acids (C26:0) in X-ALD patients on lovastatin", "assay_type": "in vivo, human"}, "[2]": {"experiment": "Plasma total cholesterol in X-ALD patients on lovastatin", "assay_type": "in vivo, human", "details": "individual patients, at six months (Patients 1, 2, 3, 6, 7), four months (Patient 4), three months (Patient 5)"}, "[3]": {"test_system": "conversion of pro-p21^ras to mature-p21^ras", "details": "Sinensky et al., 1991; read-out: IC50 for inhibition of conversion of pro-p21^ras to mature-p21^ras; cited from earlier work"}, "[4]": {"test_system": "TNF-α production in rat resident macrophages", "experiment": "LPS-/IFN-γ-induced TNF-α production (ELISA) in rat macrophages", "assay_type": "cell-based", "details": "for inhibition at 20000 µM: Rattus norvegicus, Macrophage", "procedure": "Resident macrophages cultured in serum-free RPMI 1640 medium received 20 mM NAC or 100 μM PDTC 2 h before the addition of stimuli. When stimuli were used separately their concentrations were: LPS, 1.0 μg/ml; IFN-γ, 200 U/ml, and when they were used together, their concentrations were: LPS, 0.2 μg/ml; IFN-γ, 50 U/ml. Supernatants were collected 24 h after the addition of stimuli to measure TNF-α concentration using ELISA as described."}, "[5]": {"test_system": "NOS activity in rat resident macrophages", "experiment": "NOS activity (L-citrulline from L-arginine) in homogenates of treated rat resident macrophages", "assay_type": "cell-based", "details": "for inhibition at 20000 µM: Rattus norvegicus, Macrophage", "procedure": "NOS activity was measured directly by production of L-[2,3,4,5-^3H]citrulline from L-[2,3,4,5-^3H] arginine (Feinstein et al., 1994a). […] Assays were carried out for 30 to 40 min and the production of L-[2,3,4,5-^3H] citrulline was linear. The reactions were stopped by addition of 800 μl of ice-cold 20 mM HEPES (pH 5.5) followed by addition of 2 ml of Dowex-50W equilibrated in the same buffer. The samples were then centrifuged and the concentration of L-[^3H]citrulline was determined in the supernatant by liquid scintillation counting."}, "[6]": {"test_system": "cholesterol synthesis in rat primary astrocytes"}, "[7]": {"details": "in vivo; cited from earlier work"}, "[8]": {"details": "individual X-ALD patients, lovastatin 20 then 40 mg per day"}, "[9]": {"details": "IFN-γ 200 U/ml, NAC 20 mM 2 h before"}, "[10]": {"details": "IL-1β 200 ng/ml, NAC 20 mM 2 h before"}, "[11]": {"details": "LPS 0.2 μg/ml + IFN-γ 50 U/ml, NAC 20 mM 2 h before"}, "[12]": {"details": "LPS 0.2 μg/ml + IL-1β 25 ng/ml, NAC 20 mM 2 h before"}, "[13]": {"details": "LPS 0.2 μg/ml + TNF-α 20 ng/ml, NAC 20 mM 2 h before"}, "[14]": {"details": "LPS 1.0 μg/ml, NAC 20 mM 2 h before"}, "[15]": {"details": "TNF-α 20 ng/ml + IFN-γ 50 U/ml, NAC 20 mM 2 h before"}, "[16]": {"details": "TNF-α 20 ng/ml + IL-1β 25 ng/ml, NAC 20 mM 2 h before"}, "[17]": {"details": "TNF-α 100 ng/ml, NAC 20 mM 2 h before"}, "[18]": {"details": "no stimulus (Control), NAC 20 mM"}}, "note": "Where “and” joins values, the source holds several entries; their conditions need not be identical. Equal entries are not always repeated. Entries after “also recorded” stand apart in the source; their conditions may differ.", "data": [{"smiles": "CC[C@H](C)C(=O)O[C@H]1C[C@@H](C)C=C2C=C[C@H](C)[C@H](CC[C@@H]3C[C@@H](O)CC(=O)O3)[C@H]21", "note": "[Lovastatin]", "values": [{"measurement": "plasma levels of very-long-chain fatty acids (C26:0), words", "setting": "[1]; five patients who continued the treatment", "value": "remained low and within the normal range for up to six months"}, {"measurement": "Plasma Very-Long-Chain Fatty Acids AT 1 MO", "setting": "[1]; individual X-ALD patients (one line each), lovastatin 20 mg per day two weeks, then 40 mg per day, normal controls 0.24 ± 0.13", "value": "0.42 micrograms per milliliter and 0.37 micrograms per milliliter and 0.5 micrograms per milliliter and 0.43 micrograms per milliliter and 0.24 micrograms per milliliter and 0.3 micrograms per milliliter and 0.44 micrograms per milliliter"}, {"measurement": "Plasma Very-Long-Chain Fatty Acids AT 2 MO", "setting": "[1]; [8]", "value": "0.41 micrograms per milliliter (2×) and 0.5 micrograms per milliliter and 0.42 micrograms per milliliter (2×) and 0.21 micrograms per milliliter and 0.34 micrograms per milliliter"}, {"measurement": "Plasma Very-Long-Chain Fatty Acids AT 3 MO", "setting": "[1]; [8]", "value": "0.56 micrograms per milliliter and 0.3 micrograms per milliliter and 0.43 micrograms per milliliter and 0.21 micrograms per milliliter and 0.32 micrograms per milliliter and 0.36 micrograms per milliliter"}, {"measurement": "Plasma Very-Long-Chain Fatty Acids AT 4 MO", "setting": "[1]; [8]", "value": "0.35 micrograms per milliliter and 0.34 micrograms per milliliter (2×) and 0.42 micrograms per milliliter and 0.22 micrograms per milliliter and 0.37 micrograms per milliliter"}, {"measurement": "Plasma Very-Long-Chain Fatty Acids AT 5 MO", "setting": "[1]; [8]", "value": "0.17 micrograms per milliliter and 0.41 micrograms per milliliter (2×) and 0.26 micrograms per milliliter and 0.21 micrograms per milliliter"}, {"measurement": "Plasma Very-Long-Chain Fatty Acids AT 6 MO", "setting": "[1]; [8]", "value": "0.17 micrograms per milliliter (3×) and 0.16 micrograms per milliliter and 0.21 micrograms per milliliter"}, {"measurement": "Plasma Total Cholesterol After Treatment", "setting": "[2]; after four months of treatment", "value": 167, "unit": "mg/dL"}, {"measurement": "Plasma Total Cholesterol After Treatment", "setting": "[2]; after six months of treatment", "value": "158 mg/dL and 204 mg/dL and 230 mg/dL and 183 mg/dL and 96 mg/dL"}, {"measurement": "IC50", "setting": "[3]", "value": 2600, "unit": "nM"}]}, {"smiles": "CC(=O)N[C@@H](CS)C(=O)O", "note": "[NAC, N-acetyl cysteine]", "values": [{"measurement": "TNF-α", "setting": "[4]; LPS 0.2 μg/ml + IFN-γ 50 U/ml, 20 mM NAC or 100 μM PDTC 2 h before, 24 h", "value": "2.3 ± 0.2", "unit": "ng/24 h/mg protein"}, {"measurement": "TNF-α", "setting": "[4]; LPS 1.0 μg/ml, 20 mM NAC or 100 μM PDTC 2 h before, 24 h", "value": "1.6 ± 0.3", "unit": "ng/24 h/mg protein"}, {"measurement": "inhibition at 20000 µM", "setting": "[4]; LPS 0.2 μg/ml + IFN-γ 50 U/ml, 20 mM NAC or 100 μM PDTC 2 h before", "value": 93, "unit": "%"}, {"measurement": "inhibition at 20000 µM", "setting": "[4]; LPS 1.0 μg/ml, 20 mM NAC or 100 μM PDTC 2 h before", "value": 92, "unit": "%"}, {"measurement": "TNF-α", "setting": "[4]; antioxidant alone (20 mM NAC or 100 μM PDTC), no stimulus", "value": "0.6 ± 0.2", "unit": "ng/24 h/mg protein"}, {"measurement": "L-citrulline (NOS activity)", "setting": "[5]; [9]", "value": "13.2 ± 2.4", "unit": "pmol/min/mg"}, {"measurement": "L-citrulline (NOS activity)", "setting": "[5]; [10]", "value": "12.9 ± 2.1", "unit": "pmol/min/mg"}, {"measurement": "L-citrulline (NOS activity)", "setting": "[5]; [11]", "value": "32.3 ± 4.6", "unit": "pmol/min/mg"}, {"measurement": "L-citrulline (NOS activity)", "setting": "[5]; [12]", "value": "44.9 ± 6.1", "unit": "pmol/min/mg"}, {"measurement": "L-citrulline (NOS activity)", "setting": "[5]; [13]", "value": "19.7 ± 2.7", "unit": "pmol/min/mg"}, {"measurement": "LPS-induced NOS activity, L-citrulline formation", "setting": "[5]; LPS 1.0 μg/ml, 24 h", "value": "formation of L-citrulline was strongly inhibited; also recorded: inhibited LPS-induced NOS activity"}, {"measurement": "L-citrulline (NOS activity)", "setting": "[5]; [14]", "value": "14.2 ± 2.3", "unit": "pmol/min/mg"}, {"measurement": "inhibition at 20000 µM", "setting": "[5]; [9]", "value": 90, "unit": "%"}, {"measurement": "inhibition at 20000 µM", "setting": "[5]; [10]", "value": 43, "unit": "%"}, {"measurement": "inhibition at 20000 µM", "setting": "[5]; [11]", "value": 83, "unit": "%"}, {"measurement": "inhibition at 20000 µM", "setting": "[5]; [12]", "value": 78, "unit": "%"}, {"measurement": "inhibition at 20000 µM", "setting": "[5]; [13]", "value": 91, "unit": "%"}, {"measurement": "inhibition at 20000 µM", "setting": "[5]; [14]", "value": 91, "unit": "%"}, {"measurement": "inhibition at 20000 µM", "setting": "[5]; [15]", "value": 82, "unit": "%"}, {"measurement": "inhibition at 20000 µM", "setting": "[5]; [16]", "value": 85, "unit": "%"}, {"measurement": "inhibition at 20000 µM", "setting": "[5]; [17]", "value": 61, "unit": "%"}, {"measurement": "inhibition at 20000 µM", "setting": "[5]; [18]", "value": 25, "unit": "%"}, {"measurement": "L-citrulline (NOS activity)", "setting": "[5]; [15]", "value": "36.9 ± 3.4", "unit": "pmol/min/mg"}, {"measurement": "L-citrulline (NOS activity)", "setting": "[5]; [16]", "value": "28.2 ± 4.3", "unit": "pmol/min/mg"}, {"measurement": "L-citrulline (NOS activity)", "setting": "[5]; [17]", "value": "12.9 ± 2.3", "unit": "pmol/min/mg"}, {"measurement": "L-citrulline (NOS activity)", "setting": "[5]; [18]", "value": "10.2 ± 0.9", "unit": "pmol/min/mg"}]}, {"smiles": "O=C([O-])Cc1ccccc1.[Na+]", "note": "[NaPA, sodium salt of phenylacetic acid]", "values": [{"measurement": "inhibition of the synthesis of cholesterol", "setting": "[6]", "value": "64±5.3", "unit": "%"}, {"measurement": "pharmacologically attainable concentration", "setting": "[7]", "value": "1 to 5", "unit": "mM"}]}]}
